# Measured values as given in patent US20220117968A1, “THIENO[2,3-D)PYRIMIDINES AND BENZOFURO(3,2-D)PYRIMIDINES AS ANTIMICROBIAL AGENTS” (Saint Louis University, priority 2017, published 2022).
# What was measured:
# WT Mtb Erdman strain = assay: Microplate Alamar Blue Assay (MABA); format: cell-based; conditions: Mycobacterium tuberculosis, Middlebrook 7H9 media, 7 days at 37° C., resazurin 24 hours; for MIC50: concentration that inhibits mycobacterial survival by 50%, read-out: MABA MIC50; for MIC90: concentration that inhibits mycobacterial survival by 90%, read-out: MABA MIC90
# WT Mtb Erdman = assay: Disk zone of inhibition assay; format: cell-based; conditions: Mycobacterium tuberculosis, 240 h, radius of zone absent of bacterial growth, 5 μl of 100 mM stock in DMSO on disk, Middlebrook 7H10 agar, 10 days at 37° C.
SMILES,MIC50 (WT Mtb Erdman strain) [µM],MIC90 (WT Mtb Erdman strain) [µM],zone of inhibition at 100000 µM (stock) (WT Mtb Erdman) [mm]
"CCCCNc1nc(C)nc2sc3c(c12)CCCC3 [Example 0881, N-butyl-5-methyl-8-thia-4,6-diazatricyclo[7.4.0.0^2,^7]trideca-1(9),2,4,6-tetraen-3-amine]",6.45,13.4,7
"CCCCNc1nc(C)nc2c1oc1ccccc12 [Example 0927, N-butyl-4-methyl-8-oxa-3,5-diazatricyclo[7.4.0.0^2,^7]trideca-1(9),2(7),3,5,10,12-hexaen-6-amine]",1.77,4.02,10
"CCc1nc(NCCCO)c2cc(C)sc2n1 [Example 0936, 3-({2-ethyl-6-methylthieno[2,3-d]pyrimidin-4-yl}amino)propan-1-ol]",26,48.2,0.75
"CCc1nc(NCCCOC)c2cc(C)sc2n1 [Example 0941, 2-ethyl-N-(3-methoxypropyl)-6-methylthieno[2,3-d]pyrimidin-4-amine]",7.79,16.3,4
"CCc1nc(N2CCCCC2)c2cc(C)sc2n1 [Example 0942, 1-{2-ethyl-6-methylthieno[2,3-d]pyrimidin-4-yl}piperidine]",47.5,> 50,5
"CCc1nc(N(CC)CC)c2cc(C)sc2n1 [Example 0943, N,N,2-triethyl-6-methylthieno[2,3-d]pyrimidin-4-amine]",> 50,> 50,4
"CCc1nc(NC2CC2)c2cc(C)sc2n1 [Example 0946, N-Cyclopropyl-2-ethyl-6-methylthieno[2,3-d]pyrimidin-4-amine]",0.633,2.04,27
"CCc1nc(NCCOC)c2cc(C)sc2n1 [Example 0950, 2-ethyl-N-(2-methoxyethyl)-6-methylthieno[2,3-d]pyrimidin-4-amine]",15.9,28.4,0
"CCc1nc(NC2CCCC2)c2cc(C)sc2n1 [Example 0951, N-cyclopentyl-2-ethyl-6-methylthieno[2,3-d]pyrimidin-4-amine]",> 50,> 50,1
"CCc1nc(NC2CCC2)c2cc(C)sc2n1 [Example 1019, N-Cyclobutyl-2-ethyl-6-methylthieno[2,3-d]pyrimidin-4-amine]",11.1,26.4,10
"CCCCN(C)c1nc(CC)nc2sc(C)cc12 [Example 1021, N-Butyl-2-ethyl-N,6-dimethylthieno[2,3-d]pyrimidin-4-amine]",3.93,9.81,10
"CCc1nc(NCCC(C)C)c2cc(C)sc2n1 [Example 1022, 2-Ethyl-6-methyl-N-(3-methylbutyl)thieno[2,3-d]pyrimidin-4-amine]",0.329,0.96,14
"CCc1nc(N)c2cc(C)sc2n1 [Example 1060, 2-Ethyl-6-methyl-thieno[2,3-d]pyrimidin-4-amine]",10,17.2,0
"Cc1cc2c(NC3CC3)nc(C(C)C)nc2s1 [Example 1061, N-Cyclopropyl-2-isopropyl-6-methyl-thieno[2,3-d]pyrimidin-4-amine]",0.615,1.28,19
"CCc1nc(NC(C)(C)C)c2cc(C)sc2n1 [Example 1069, N-tert-Butyl-2-ethyl-6-methyl-thieno[2,3-d]pyrimidin-4-amine]",30.9,> 50,5
"CCc1nc(NCC(F)(F)F)c2cc(C)sc2n1 [Example 1072, 2-Ethyl-6-methyl-N-(2,2,2-trifluoroethyl)thieno[2,3-d]pyrimidin-4-amine]",6.32,19.2,9
"CCc1nc(NC2CC2)c2ccsc2n1 [Example 1074, N-Cyclopropyl-2-ethyl-thieno[2,3-d]pyrimidin-4-amine]",6.1,22.7,21
"CCc1nc(NCCCC(F)(F)F)c2ccsc2n1 [Example 1366, 2-Ethyl-N-(4,4,4-trifluorobutyl)thieno[2,3-d]pyrimidin-4-amine]",0.00133,0.00369,14
"FC(F)(F)c1nc(NC2CC2)c2ccsc2n1 [Example 1541, N-Cyclopropyl-2-(trifluoromethyl)thieno[2,3-d]pyrimidin-4-amine]",36.8,> 50,1.8
"CCCCNc1nc(C(F)(F)F)nc2sccc12 [Example 1545, N-Butyl-2-(trifluoromethyl)thieno[2,3-d]pyrimidin-4-amine]",26.9,30.5,1.8
"CCCCNc1nc(CC)nc2scc(C)c12 [Example 1699, N-Butyl-2-ethyl-5-methylthieno[2,3-d]pyrimidin-4-amine]",35.5,45.5,6
"CCc1nc(NC2CC2)c2c(C)csc2n1 [Example 1701, N-Cyclopropyl-2-ethyl-5-methylthieno[2,3-d]pyrimidin-4-amine]",9.77,16.1,1.7
"Cc1cccc(-c2nc(NCCCc3ccccc3)c3c(C)csc3n2)n1 [Example 1709, 5-methyl-2-(6-methylpyridin-2-yl)-N-(3-phenylpropyl)thieno[2,3-d]pyrimidin-4-amine]",2.56,19.7,
"Cc1cccc(-c2nc(NCCCC(F)(F)F)c3c(C)csc3n2)n1 [Example 1711, 5-methyl-2-(6-methylpyridin-2-yl)-N-(4,4,4-trifluorobutyl)thieno[2,3-d]pyrimidin-4-amine]",6.48,19.4,
